Results from patent publication US20040235884A1, “Preventives/remedies for cholinergic neuropathy” (priority 2001, published 2004).

Tests used:
[1] = test system: high-affinity choline transporter; experiment: [3H]hemicholinium-3 binding to hippocampal membrane samples after pre-incubation with drug; Scatchard-plot; set-up: species or system rats
Procedure: The action of the compound of the formula (I), particularly 4-acylamino-5,6,7,8-tetrahydrofuro[2,3-b]quinoline derivative, relative to the density of the high-affinity choline transporter on the nerve terminal was examined using [^3H]hemicholinium-3, which is a specific labeled ligand of a high-affinity choline transporter (SYNAPSE No. 1, pp. 293-303, 1987). The aforementioned AF64A-treated rats were used in this test, too. Hippocampal membrane samples (P2 fraction) were prepared according to a conventional method from the AF64A-treated animals and the sham operation animals. These membrane samples were incubated in Ringer's solution with Compound A at each concentration or a solvent (vehicle) at 37° C. for 30 min. After the completion of the incubation, the drug was removed from the reaction mixture by centrifugation at 4° C. and the membrane samples were washed. The drug-treated membrane samples thus obtained were suspended in a solution containing [^3H] hemicholinium-3, and incubated overnight at 4° C. […] After thorough drying, a scintillator was added and the radioactivity of the membrane samples was measured on a liquid scintillation counter. […] For the analysis of binding mode, Scatchard-plot was used and the maximum binding Bmax and dissociation constant Kd were calculated.

[2] = test system: high-affinity choline uptake of hippocampal synaptosome (membrane sample); experiment: Effect on high-affinity choline uptake, [3H]choline, hippocampal synaptosome (membrane sample, P2 fraction) of AF64A-treated rats, in vitro incubation; format: biochemical, male Wistar rats; settings: membrane samples with choline uptake reduced by AF64A treatment; incubation 37° C. 30 min; FIG. 1
Procedure: The action of the compound of the formula (I), particularly 4-acylamino-5,6,7,8-tetrahydrofuro[2,3-b]quinoline derivative, on the high-affinity choline uptake was examined using [^3H] choline and hippocampal synaptosome (membrane sample). AF64A (3 μmol), which is a neurotoxin specific to the cholinergic nerve, was administered to male Wistar rats into the cerebral ventricles bilaterally. The rats were subjected to an experiment after a recovery period of about 10 days. Hippocampal membrane samples (P2 fraction) were prepared by a conventional method from these animals and the animals that underwent a sham operation. These membrane samples were incubated in Ringer's solution with Compound A at each concentration or a solvent (vehicle) at 37° C. for 30 min. [^3H] Choline was added to the reaction mixture, and the mixture was incubated for 10 min. After the completion of the incubation, the membrane samples were filtrated on a glass fiber filter using a cell harvester and washed three times with a buffer. After thorough drying, a scintillator was added and the radioactivity of the membrane samples was measured on a liquid scintillation counter. Non-specific uptake was done under ice-cooling.

[3] = test system: high-affinity choline uptake of hippocampal membrane samples; experiment: Sustention of action on high-affinity choline uptake: hippocampal membrane samples prepared after single or consecutive administration to AF64A-treated rats; format: in vivo; settings: for HACU promotion: FIG. 6
From the text: (§1) Because the compound of the formula (I), particularly 4-acylamino-5,6,7,8-tetrahydrofuro[2,3-b]quinoline derivative, has the above-mentioned mechanism, the promoting action on the high-affinity choline uptake is considered to be dependent on the density of high-affinity choline transporters on the nerve terminal, and therefore, to show a shift independent of the elimination rate of a drug. To clarify this point, the sustained promoting action on the high-affinity choline uptake was examined by monitoring the changes in efficacy when the aforementioned AF64A-treated rats were subjected to single and consecutive administration(s) of a drug. In the test, Compound A at each concentration or a solvent (vehicle) was administered singly or consecutively to AF64A-treated animals and the animals that underwent a sham operation. After a given time, the animals were slaughtered and hippocampal membrane samples (P2 fraction) were prepared by a conventional method. These membrane samples were incubated in Ringer's solution supplemented with [^3H) choline at 37° C. for 10 min. After the completion of the incubation, the membrane samples were filtrated on a glass fiber filter using a cell harvester and washed three times with a buffer. After thorough drying, a scintillator was added and the radioactivity of the membrane samples was measured on a liquid scintillation counter. The non-specific uptake was that in the presence of hemicholinium-3 (10 μM) in a sodium ion free Ringer's solution. To establish the close relationship between the efficacy observed here and an improving action on the dementia symptoms, the improving effect on the water maze-learning disorder observed in the AF64A-treated rats was also studied at a given time after drug administration for 8 consecutive days.

AF64A-treated rats = experiment: Water maze-learning disorder test in AF64A-treated rats; format: in vivo; settings: FIG. 7
From the text: as §1, with “The non-specific uptake was that in the presence of hemicholinium-3 (10 μM) in a sodium ion free Ringer's solution. To establish the close relationship between the efficacy observed here and an improving action on the dementia symptoms, the improving effect on the water maze-learning disorder observed in the AF64A-treated rats was also studied at a given time after drug administration for 8 consecutive days.” left out

Question: How did the “action on maximum binding Bmax of hemicholinium-3 (transporter number on membrane surface)” value ([1]; Scatchard-plot analysis, FIG. 3) turn out when Cc1oc2nc3c(c(NC(=O)CN4CCCC4=O)c2c1C)CCCC3 [Compound A, 2-(2-oxopyrrolidin-1-yl)-N-(2,3-dimethyl-5,6,7,8-tetrahydrofuro[2,3-b)quinolin-4-yl)acetamide] was run?
Answer: Its value is “increasing action on the maximum binding Bmax”.

Question: And the “binding of [3H]hemicholinium-3 on the hippocampal membrane sample” value ([1]; incubation in advance with drug, 37° C. 30 min, FIG. 2)?
Answer: The value was “increased dose-dependently”.

Question: And the “choline uptake of hippocampal membrane samples” value [2]?
Answer: Its value is “significantly improved”.

Question: What about the HACU promotion ([3]; 24 h after administration for 4 consecutive days) of the same molecule?
Answer: The HACU promotion was “significant HACU promotion was not observed”.

Question: And the HACU promotion ([3]; 24 h after administration for 16 consecutive days)?
Answer: The HACU promotion was “same level of improving effect as with the administration for 8 consecutive days”.

Question: What about the HACU promoting action ([3]; administration for 8 consecutive days, 24 h from the final administration, FIG. 5) of the same molecule?
Answer: Its HACU promoting action is “significant HACU promoting action was observed”.

Question: And the HACU promoting action ([3]; administration for 8 consecutive days, 48 h later, FIG. 5)?
Answer: The HACU promoting action was “sustained”.

Question: And the HACU promoting action ([3]; administration for 8 consecutive days, 72 h, FIG. 5)?
Answer: Its HACU promoting action is “disappeared”.

Question: And the HACU promoting action ([3]; single administration, 1 h after administration, FIG. 4)?
Answer: Its HACU promoting action is “significant promotion of HACU”.

Question: And the HACU promoting action ([3]; single administration, 3 h after administration, FIG. 4)?
Answer: Its HACU promoting action is “significant promotion of HACU”.

Question: And the HACU promoting action ([3]; single administration, 24 h later, FIG. 4)?
Answer: The HACU promoting action was “attenuated”.

Question: And the “improving effect on learning disorder (water maze)” value (AF64A-treated rats; 24 h after the administration for 8 consecutive days)?
Answer: The value was “significant improving effect on learning disorder”.

Question: And the “improving effect on learning disorder (water maze)” value (AF64A-treated rats; 48 h after the administration for 8 consecutive days)?
Answer: The value was “significant improving effect on learning disorder”.
